Reference: patent publication US6905840B1, “Double motor mutant assay for antifungal agents” (Cytokinetics, Inc., priority 2003, dated 2005)

Tests used:
[1] = test system: kip3-20(ts) dyn1Δ (DS765) double mutant; assay: Benomyl suppression of lethality of the kip3(ts) dyn1 double mutant, spot growth on YPD; type: cell-based, Saccharomyces cerevisiae; conditions: 37° C., solid YPD medium with 1% DMSO, 5 or 10 μg/ml benomyl, 3 d; little growth in the absence of benomyl
Procedure: Since one phenotype of the kip3 single mutant and the kip3(ts) dyn1 double mutant is increased microtubule abundance, it was tested whether the microtubule-depolymerizing drug benomyl could suppress the lethality of the kip3(ts) dyn1 double mutant.

[2] = test system: kip3-30(ts) kar3Δ (DS752) double mutant; assay: Benomyl suppression of lethality of the kip3-30(ts) kar3 double mutant, spot growth on YPD; type: cell-based, Saccharomyces cerevisiae; conditions: medium containing a low concentration of benomyl, restrictive temperature (FIG. 1C)

In the case of `CCCCNC(=O)n1c(NC(=O)OC)nc2ccccc21` [benomyl], the “growth of the kip3(ts) dyn1 double mutant (suppression of lethality)” value [1] is reported as “significant growth” and the “lethality of the kip3-30(ts) kar3 double mutant” value [2] is reported as “partially suppressed”.
